Consider two compounds from patent US20060100140A1, “Combination of a) n-{5-[4-(4-methyl-piperazino-methyl)-benzoylamido]2-methylphenyl}-4- (3-pyridyl)-2-pyrimidine-amine and b) a histone deacetylase inhibitor for the treatment of leukemia” (priority 2002, published 2006).

Common to all, as to format: cell-based, human
In experiment [1] the test system is K562 cells. Put plainly: Loss of mitochondrial membrane potential (DiOC6 flow cytometry). Particulars: 2.0 μM SAHA ± 250 nM Compound I. As to the method:
Determination of MMP(ΔΨm): MMP is monitored using DiOC6 [36]. For each condition, 4×10^5 cells are incubated for 15 min at 37° C. in 1 ml of 40 nM DiOC6 (Calbiochem) and subsequently analyzed using a Becton Dickinson FACScan cytofluorometer with excitation and emission settings of 488 and 525 nm, respectively. Control experiments documenting the loss of ΔΨm are performed by exposing cells to 5 μM of […] cyanide m-chlorophenylhydrazone (Sigma Chemical Co.; 15 min, 37° C.), an uncoupling agent that abolishes the MMP.

Experiment [2] concerns Compound I-resistant LAMA 84 cells (LAMA 84R). Put plainly: Apoptosis by Wright Giemsa-stained cytospin slides in resistant cells. The conditions noted are these: Table 7, 24 hr, Compound I (1.0 or 1.25 μM), SAHA (1.0 or 2.0). As for the experimental part:
For studies involving the LAMA 84-R line, cells are washed free of drug and resuspended in drug-free medium 48 h before experimentation.
(§1) Assessment of Apoptosis: After drug exposures, cytocentrifuge preparations are stained with Wright-Giemsa and viewed by light microscopy to evaluate the extent of apoptosis (i.e., cell shrinkage, nuclear condensation, formation of apoptotic bodies, etc.) as described previously (Yu et al., Nat. Rev. Cancer 1:294-202). For these studies, the percentage of apoptotic cells is determined by evaluating ≧500 cells/condition in triplicate. To confirm the results of morphological analysis, Annexin V/PI staining is used. Annexin V/PI (BD PharMingen, San Diego, Calif.) analysis of cell death is carried out as per the manufacturer's instructions. In studies involving TNF and TNF soluble receptor, both compound are combined and maintained at room temperature 20 min prior to use. For these experiments 1-2×10^5 cells per condition are harvested. Analysis is carried out using a Becton-Dickinson FACScan cytofluorometer (Mansfield, Mass.). […] The slides are treated with acetic acid/ethanol (1:2), stained with terminal transferase reaction mixture containing 1× terminal transferase reaction buffer (0.25 units/μl terminal transferase, 2.5 mM CoCl2, and 2 pmol fluorescein-12-dUTM; Boehringer Mannheim, Indianapolis, Ind.), and visualized using fluorescence microscopy.

Experiment [3] concerns K562 cells transfected with GFP/constitutively active MEK1/2 fusion cDNA. Put plainly: Apoptosis in sorted transiently transfected cells. The conditions noted are these: Table 8; GFP/MEK; 2.0 μM SAHA ± 250 nM Compound I for 24 hr. As for the experimental part: as §1, with “instructions.” for “instructions. In studies involving TNF and TNF soluble receptor, both compound are combined and maintained at room temperature 20 min prior to use. For these experiments 1-2×10^5 cells per condition are harvested. Analysis is carried out using a Becton-Dickinson FACScan cytofluorometer (Mansfield, Mass.).”
(§2) Transient transfections: Plasmids encoding enhanced green fluorescence protein under the transciptional control of the human cytomegalovirus (CMV) immediate-early promoter (pEGFP-C2), and HA-tagged activated MEK1 (S218D/S222D in pUSEEamp) are obtained from Clontech Laboratories (Palo Alto, Calif.) and Upstate Biotechnology (Lake Placid, N.Y.), respectively.

For experiment [4], the system named is K562 cells transfected with GFP alone. Nature of the experiment: Apoptosis in sorted transiently transfected cells. The conditions noted are these: Table 8, 2.0 μM SAHA ± 250 nM Compound I for 24 hr. As to the method: as §1, with “instructions.” for “instructions. In studies involving TNF and TNF soluble receptor, both compound are combined and maintained at room temperature 20 min prior to use. For these experiments 1-2×10^5 cells per condition are harvested. Analysis is carried out using a Becton-Dickinson FACScan cytofluorometer (Mansfield, Mass.).”
as §2

The subject of experiment [5] is K562 cells. Nature of the experiment: Clonogenic survival in soft agar. The conditions noted are these: 2.0 μM SAHA ± 250 nM Compound I for 24 hr, washed, 12-day incubation. As for the experimental part: Analysis of erythroid maturation of K562 cells is performed by monitoring the production of hemoglobin as previously described (Yang et al., J. Biol. Chem. 2001, 276:25742-52). Clonogenic Survival: Effects of drug treatment on the clonogenic survival of leukemia cells is determined using a previously described clonogenic assay (Yu et al., Mol. Pharmacol. 2001, 60: 143-54).

The subject of experiment [6] is K562 cells. Nature of the experiment: Erythroid differentiation by hemoglobin (Hgb) production. Particulars: 2.0 μM SAHA ± 250 nM Compound I. From the text: In each case, values represent the means±S.D. for three separate experiments.
Experiment [7] relates to p21^CIP1. Put plainly: Western analysis of p21CIP1 in K562 cells. Particulars: 2.0 μM SAHA ± 250 nM Compound I. As to the method: Immunoblot Analysis: Immunoblotting is performed as described previously (Yu et al., Nat. Rev. Cancer 1:294-202). In brief, after drug treatment cells are pelleted by centrifugation, and lysed immediately in Laemmli buffer [1×=30 mM Tris-base (pH 6.8), 2% SDS, […] β-mercaptoethanol, and 10% glycerol], and briefly sonicated. Homogenates are quantified using Coomassie protein assay reagent (Pierce, Rockford, Ill.). Equal amounts of protein (20 μg) are boiled for 10 min, separated by SDS-PAGE (5% stacker and 10% resolving), and electroblotted to nitrocellulose membrane. After blocking in TBS-T (0.05%) and 5% milk for 1 h at 22° C., the blots are incubated in fresh blocking solution with an appropriate dilution of primary antibody for 4 h at 22° C. […]
K562 cells are treated as above, and monitored for expression of Bcl-xL, Mcl-1, and XIAP. […]

The structures appear in SMILES notation.

`Cc1ccc(NC(=O)c2ccc(CN3CCN(C)CC3)cc2)cc1Nc1nccc(-c2cccnc2)n1` [Compound I, N-{5-[4-(4-methyl-piperazino-methyl)-benzoylamido]-2-methylphenyl}-4-(3-pyridyl)-2-pyrimidine-amine]: the “percentage of cells displaying loss of mitochondrial membrane potential (ΔΨm)” value is 5.7 ± 1.8% in experiment [1] (0 hours), 8.8 ± 1.9% in experiment [1] (6 hours), 17.8 ± 3.4% in experiment [1] (24 hours) and 41.3 ± 4.3% in experiment [1] (48 hours). In addition, the “Compound I + SAHA % of apoptotic cells” value in experiment [2] is listed as 14.8 ± 4.7%.

As to `O=C(CCCCCCC(=O)Nc1ccccc1)NO` [SAHA, suberoylanilide hydroxamic acid], the “percentage of cells displaying loss of mitochondrial membrane potential (ΔΨm)” value is reported as 5.4 ± 1.6% in experiment [1] (0 hours); 8.1 ± 1.9% in experiment [1] (6 hours); 10.4 ± 2.1% in experiment [1] (12 hours); 12.3 ± 2.8% in experiment [1] (18 hours); 16.4 ± 2.9% in experiment [1] (24 hours); 20.5 ± 2.8% in experiment [1] (48 hours). Further, in experiment [2], the “Compound I + SAHA % of apoptotic cells” value was 10.3 ± 3.4%. The apoptosis in experiment [3] is 19.8 ± 2.1%; in experiment [4], 22.5 ± 2.6%. The “Clonogenic survival (% control)” value in experiment [5] came out at 21.8 ± 3.6 % control. For the same compound, the “increase in Hgb production” value in experiment [6] (24-hr exposure) is about 50%. For the same compound, the Hgb production entry in experiment [6] (48 hr, data not shown) is “substantial increases”. Further, in experiment [7], the “induction of p21^CIP1” value is listed as “robust induction”.
